In brackets after ≈: the same amount, converted by molar mass. Like-named read-outs stand apart in the source and are kept apart here. Non-standard residues stand in square brackets, D forms with d. Residues, ends and D or L forms follow the SMILES beside them. Dip = N[C@H](C(=O)O)C(c1ccccc1)c1ccccc1
How the values were obtained:
[1] = test system: E. faecium BCRC 15B0132 (VRE); assay: microbe, parasite or virus in culture; format: cell-based, Enterococcus faecium
Description: (§1) The antibacterial activities of peptides were determined by the standard broth microdilution method according to the guidelines of the Clinical and Laboratory Standards Institute (CLSI). Briefly, E. coli ATCC 25922 were incubated in MHB, and E. faecium BCRC 15B0132, VISA and VRSA strains were incubated in TSB overnight at 37 °C. The cell cultures were regrown to the mid-log phase and subsequently diluted to a final concentration of 5 × 10^5 CFU/mL. The 1 µL peptides or antibiotic were loaded into each well at the final concentration of 64, 32, 16, 8, 4, 2, 1, and 0.5 µg/mL, then loaded 99 µL diluted microbes into each well of polypropylene 96-well plate. After 16 h of incubation at 37 °C, the turbidity at OD600 was measured by the microplate reader. The minimal inhibitory concentration (MIC) value was defined as the lowest concentration of peptide or antibiotic, which inhibited the 90% visible growth of bacteria. All experiments were repeated three times independently.

[2] = test system: Vancomycin-intermediate S. aureus 01 (VISA01); assay: microbe, parasite or virus in culture; format: cell-based, Staphylococcus aureus
Description: as §1

[3] = test system: Vancomycin-intermediate S. aureus 02 (VISA02); assay: microbe, parasite or virus in culture; format: cell-based, Staphylococcus aureus
Description: as §1

[4] = test system: Vancomycin-intermediate S. aureus 03 (VISA03); assay: microbe, parasite or virus in culture; format: cell-based, Staphylococcus aureus
Description: as §1

[5] = test system: Vancomycin-resistant S. aureus 01 (VRSA01); assay: microbe, parasite or virus in culture; format: cell-based, Staphylococcus aureus; settings: 16 h
Description: (§2) For the purpose of inducing vancomycin-resistant Staphylococcus aureus (VRSA), the VISA01, VISA02, and VISA03 bacteria were incubated overnight in culture medium, and transferring 50 µL of bacteria to 5 mL of fresh medium containing 2 μg/mL of vancomycin then incubated overnight. The bacteria were transferred to new tube with doubling vancomycin concentration and then incubated overnight again. The concentration of vancomycin during serial passage was 2, 4, 8, 16, and 32 µg/mL. The procedure was repeated until meeting the final concentration of 32 µg/mL. After serial passage, the cell resistance was confirmed by using an MIC assay.
as §1

[6] = test system: Vancomycin-resistant S. aureus 02 (VRSA02); assay: microbe, parasite or virus in culture; format: cell-based, Staphylococcus aureus; settings: 16 h
Description: as §2, §1

[7] = test system: Vancomycin-resistant S. aureus 03 (VRSA03); assay: microbe, parasite or virus in culture; format: cell-based, Staphylococcus aureus; settings: 16 h
Description: as §2, §1

E. coli ATCC 25922 [8] = assay: microbe, parasite or virus in culture; format: cell-based, Escherichia coli
Description: as §1

[9] = test system: VRE, VISA, VRSA and E. coli strains; assay: Checkerboard assay, summary statements of the text over the strain panel; format: cell-based; settings: peptide at ¼ ×MIC combined with vancomycin, all strains studied
Description: The synergistic effects of peptides in combination with vancomycin were investigated by checkerboard assay with slight modification. The peptides were fixed concentration at ¼ × MIC, then in combination with antibiotics at various concentrations in each well of 96-well plate. Then the peptide/antibiotic were mixed with inoculum (5 × 10^5 CFU/mL) and incubated at 37 °C for 16 h. The fractional inhibitory concentration (FIC) index was calculated as follows: FIC index = (MIC of drug A in combination/MIC of drug A alone) + (MIC of drug B in combination/MIC of drug B alone). An FIC index of ≤ 0.5 was defined as synergy, indifference was defined as an FIC index of 0.5 < FICI ≤ 4, antagonism was defined as an FIC index of > 4. The experiments were performed in triplicate.

[10] = test system: E. faecium BCRC 15B0132 (VRE); assay: Time killing assay; format: cell-based, Enterococcus faecium; settings: 5 × 10^5 CFU/mL, 1 × MIC, 0.5-24 h, 37 °C, triplicate
Description: (§3) The bactericidal activities of vancomycin, P-113, Phe-P-113, Bip-P-113, Dip-P-113, and Nal-P-113 against E. faecium BCRC 15B0132 (VRE) and E. coli ATCC 25922 were assessed by the time-kill analysis. The cells were grown overnight in TSB or MHB at 37 °C with shaking, and then fresh TSB or MHB was inoculated for growth to mid-logarithmic phase. Bacteria (5 × 10^5 CFU/mL) were treated with 1 × MIC vancomycin, P-113, Phe-P-113, Bip-P-113, Dip-P-113, and Nal-P-113 for 0.5, 1, 2, 4, 6, 10, and 24 h at 37 °C. Bacteria without peptides and vancomycin served as a control. Aliquots were removed at each time points, and 10-fold serial dilutions of the aliquot were plated onto the Müller-Hinton agar. The numbers of CFU were counted after 24 h of incubation at 37 °C. The detection limit for the colony counts was 2log10 CFU/mL.

E. faecium BCRC 15B0132 = assay: Uptake of BODIPY-labeled vancomycin, confocal laser scanning microscopy; format: cell-based, Enterococcus faecium; settings: VRE 10^7 CFU/mL, 0.5 ×MIC peptide 30 min at 37 °C, then BODIPY-labeled vancomycin (2 μg/mL) 30 min; mean fluorescence intensity
Description: (§4) The fluorescence experiments were performed with slight modification as described previously. Briefly, the bacteria (10^7 CFU/mL) were incubated with 0.5 ×MIC antimicrobial peptides for 30 min and then treated with BODIPY-labeled vancomycin (2 μg/mL) for 30 min. Samples treated with BODIPY-labeled vancomycin only served as a control. After incubation, bacteria were centrifuged at 8000× g for 5 min, washed three times with PBS to remove unbinding fluorescence dye, and resuspended by PBS. The resuspended solution were loaded on the glass slides (Polysine™, Thermo Fisher Scientific, Waltham, MA, USA) and visualized under confocal laser scanning microscope (LSM 510 META, Carl Zeiss, Jena, Thüringen, Germany) equipped with a 64× oil objective lens (Carl Zeiss, Jena, Thüringen, Germany).

E. coli ATCC 25922 [11] = assay: as above; format: cell-based, Escherichia coli; settings: E. coli 10^7 CFU/mL, 0.5 ×MIC peptide 30 min at 37 °C, then BODIPY-labeled vancomycin (2 μg/mL) 30 min; mean fluorescence intensity
Description: as §4

[12] = POPC:POPG (3:1, mol/mol) and POPC:LPS (4:1, mol/mol) LUVs; cited from earlier work
From the text: Dathe and coauthors used POPC:LPS as model prokaryotic membranes to study peptide activity against E. coli and the role of LPS [20]. Previously, we have evaluated the membrane-permeability of P-113 and its derivatives by measuring the release of calcein from various phospholipid vesicles such as POPC:POPG (3:1, mol/mol) LUVs (mimic the anionic bacterial membrane) and POPC:LPS (4:1, mol/mol) LUVs (served as surrogates of Gram-negative bacterial membranes that contain LPS). […] Nal- ...

human fibroblasts (HFW) = settings: peptide >25 µg/mL; cited from earlier work
[13] = test system: VRE, VISA, VRSA, and E. coli strains; assay: microbe, parasite or virus in culture; format: cell-based; settings: for MICs against these bacterial strains: 16 h; for MIC: Staphylococcus aureus
Description: as §1

E. coli ATCC 25922 [14] = assay: Time killing assay; format: cell-based, Escherichia coli; settings: E. coli ATCC 25922, 5 × 10^5 CFU/mL, 1 × MIC, 0.5-24 h, 37 °C; triplicate
Description: as §3

[15] = Vancomycin-intermediate 01 (VISA01, 16 h)
[16] = Vancomycin-intermediate 02 (VISA02, 16 h)
[17] = Vancomycin-intermediate 03 (VISA03, 16 h)
[18] = VRSA01 (induced from VISA01 by serial passage), CLSI broth microdilution, TSB, 5 × 10^5 CFU/mL, 37 °C, triplicate
[19] = VRSA02 (induced from VISA02 by serial passage), CLSI broth microdilution, TSB, 5 × 10^5 CFU/mL, 37 °C, triplicate
[20] = VRSA03 (induced from VISA03 by serial passage), CLSI broth microdilution, TSB, 5 × 10^5 CFU/mL, 37 °C, triplicate

SMILES	MIC ([1]; BCRC 15, 16 h) [µg/mL]	MIC [2, 15] [µg/mL]	MIC [3, 16] [µg/mL]	MIC [4, 17] [µg/mL]	MIC [5, 18] [µg/mL]	MIC [6, 19] [µg/mL]	MIC [7, 20] [µg/mL]	MIC (E. coli ATCC 25922 [8]; ATCC 25922, 16 h) [µg/mL]	synergy with vancomycin (interpretation of FICI) [9]	killing kinetics [10]	entry of BODIPY-labeled vancomycin into the bacteria (rank order) (E. faecium BCRC 15B0132)	entry of BODIPY-labeled vancomycin into the bacteria (rank order) (E. coli ATCC 25922 [11])	calcein leakage from LUVs [12]	MICs against these bacterial strains [13] [µg/mL]	killing kinetics (E. coli ATCC 25922 [14])	other results
CC(=O)N[C@@H](C)C(=O)N[C@@H](CCCCN)C(=O)N[C@@H](CCCNC(=N)N)C(=O)N[C@H](C(=O)N[C@H](C(=O)NCC(=O)N[C@@H](Cc1ccc(O)cc1)C(=O)N[C@@H](CCCCN)C(=O)N[C@@H](CCCNC(=N)N)C(=O)N[C@@H](CCCCN)C(=O)N[C@@H](Cc1ccccc1)C(=O)N[C@H](C(N)=O)C(c1ccccc1)c1ccccc1)C(c1ccccc1)c1ccccc1)C(c1ccccc1)c1ccccc1 [Dip-P-113] (Ac-AKR[Dip][Dip]GYKRKF[Dip]-NH2)	4 (≈ 2.15 µM)	16 (≈ 8.58 µM)	16 (≈ 8.58 µM)	16 (≈ 8.58 µM)	32 (≈ 17.2 µM)	32 (≈ 17.2 µM)	32 (≈ 17.2 µM)	64 (≈ 34.3 µM)	synergistic effects against VRE, VRSA 02, and E. coli	rapid bactericidal activity	Bip-P-113 = Nal-P-113 > Dip-P-113 > Phe-P-113 = P-113	Bip-P-113 > Nal-P-113 > Dip-P-113 > Phe-P-113 = P-113	dose-dependent calcein leakage			cell death (MTT) (human fibroblasts (HFW)): 10–20%
CC(=O)N[C@@H](C)C(=O)N[C@@H](CCCCN)C(=O)N[C@@H](CCCNC(=N)N)C(=O)N[C@@H](Cc1c[nH]cn1)C(=O)N[C@@H](Cc1c[nH]cn1)C(=O)NCC(=O)N[C@@H](Cc1ccc(O)cc1)C(=O)N[C@@H](CCCCN)C(=O)N[C@@H](CCCNC(=N)N)C(=O)N[C@@H](CCCCN)C(=O)N[C@@H](Cc1ccccc1)C(=O)N[C@@H](Cc1c[nH]cn1)C(N)=O [P-113] (Ac-AKRHHGYKRKFH-NH2)	>64	>64	>64	>64	>64	>64	>64	>64	no synergy	slower or limited killing kinetics	Bip-P-113 = Nal-P-113 > Dip-P-113 > Phe-P-113 = P-113	Bip-P-113 > Nal-P-113 > Dip-P-113 > Phe-P-113 = P-113	only weak abilities in causing calcein leakage	> 64	limited bactericidal activity	
CC(=O)N[C@@H](C)C(=O)N[C@@H](CCCCN)C(=O)N[C@@H](CCCNC(=N)N)C(=O)N[C@@H](Cc1ccccc1)C(=O)N[C@@H](Cc1ccccc1)C(=O)NCC(=O)N[C@@H](Cc1ccc(O)cc1)C(=O)N[C@@H](CCCCN)C(=O)N[C@@H](CCCNC(=N)N)C(=O)N[C@@H](CCCCN)C(=O)N[C@@H](Cc1ccccc1)C(=O)N[C@@H](Cc1ccccc1)C(N)=O [Phe-P-113] (Ac-AKRFFGYKRKFF-NH2)	>64	>64	>64	>64	>64	>64	>64	>64	no synergy	slower or limited killing kinetics	Bip-P-113 = Nal-P-113 > Dip-P-113 > Phe-P-113 = P-113	Bip-P-113 > Nal-P-113 > Dip-P-113 > Phe-P-113 = P-113	only weak abilities in causing calcein leakage	> 64	limited bactericidal activity	
CN[C@H](CC(C)C)C(=O)N[C@H]1C(=O)N[C@@H](CC(N)=O)C(=O)N[C@H]2C(=O)N[C@H]3C(=O)N[C@H](C(=O)N[C@H](C(=O)O)c4cc(O)cc(O)c4-c4cc3ccc4O)[C@H](O)c3ccc(c(Cl)c3)Oc3cc2cc(c3O[C@@H]2O[C@H](CO)[C@@H](O)[C@H](O)[C@H]2O[C@H]2C[C@](C)(N)[C@H](O)[C@H](C)O2)Oc2ccc(cc2Cl)[C@H]1O [Vancomycin]										slower or limited killing kinetics					limited bactericidal activity	MIC ([1]; E. faecium BCRC 15B0132 (VRE), CLSI broth microdilution, TSB, 5 × 10^5 CFU/mL, 16 h, 37 °C, OD600, 90% growth inhibition, triplicate): 64 µg/mL (≈ 44.2 µM); MIC ([1]; Enterococcus faecium, VRE, 16 h): 64 µg/mL (≈ 44.2 µM); MIC ([2]; Staphylococcus aureus, 16 h): 4 µg/mL (≈ 2.76 µM); MIC ([3]; Staphylococcus aureus, 16 h): 4 µg/mL (≈ 2.76 µM); MIC ([4]; Staphylococcus aureus, 16 h): 4 µg/mL (≈ 2.76 µM); MIC ([5]; Staphylococcus aureus): 32 µg/mL (≈ 22.1 µM); MIC ([6]; Staphylococcus aureus): 32 µg/mL (≈ 22.1 µM); MIC ([7]; Staphylococcus aureus): 32 µg/mL (≈ 22.1 µM); MIC (E. coli ATCC 25922 [8]; E. coli ATCC 25922, CLSI broth microdilution, MHB, 5 × 10^5 CFU/mL, 16 h, 37 °C, OD600, 90% growth inhibition, triplicate): > 64 µg/mL; MIC (E. coli ATCC 25922 [8]; Escherichia coli, ATCC25922, 16 h): > 64 µg/mL; MIC ([13]; read-out: MIC against VISA strains): 4 µg/mL (≈ 2.76 µM); MIC ([13]; read-out: MIC against VRSA strains): 32 µg/mL (≈ 22.1 µM)
